Measured values as given in patent publication US20150064220A1, “METHODS FOR MODULATING CELL-MEDIATED IMMUNITY USING HUMAN MILK OLIGOSACCHARIDES” (ABBOTT LABORATORIES, priority 2012, published 2015).

Key:
[1] = system: Peripheral blood mononuclear cells (PBMCs); experiment: PBMC proliferation by tritiated thymidine incorporation, with or without the T-cell mitogen PHA; format: cell-based, piglets; conditions: 72 hours; for unstimulated peripheral blood mononuclear cell proliferation: HMO or HMO mixture 125 μg/mL alone (no PHA), FIG. 2; for PHA-stimulated peripheral blood mononuclear cell proliferation: HMO or HMO mixture 125 μg/mL with 25 μg/mL PHA, compared to cultures containing no HMO, FIG. 1
Method: T-cell mediated responses were assessed by proliferative responses to the T-cell mitogen phytohemagglutinin (PHA) (simulates infection). […] Peripheral blood mononuclear cells (PBMCs) were isolated using standard density gradient (Ficoll-Paque PLUS) techniques. Residual red blood cells were lysed with a hypotonic ammonium chloride solution. Cells were washed and resuspended in RPMI (Roswell Park Memorial Institute medium) media containing: 10% fetal bovine serum, 2 mM Glutamine, 1 mM sodium pyruvate, 20 mM HEPES (4-(2-hydroxyethyl)-1-piperazineethanesulfonic acid), 50 μg/mL gentamicin, 1000 IU/mL penicillin and 100 μg/mL streptomycin, at a concentration of 1×10^6/mL, and then cultured in the presence or absence of the individual HMOs or HMO mixtures at a concentration of 125 μg/mL, alone or in combination with 25 μg/mL PHA. Cells were cultured for 72 hours, and cellular proliferation was determined using standard tritiated thymidine incorporation methodology.

[2] = system: T regulatory cells (FoxP3+, CD4+, CD25+) in mesenteric lymph nodes; experiment: T-regulatory cells in mesenteric lymph nodes of orally supplemented mice, by flow cytometry; format: in vivo; conditions: oral 7.5 mg daily for 5 days versus PBS, day six, FIG. 3
Method: Mice were orally supplemented with 7.5 mg of 2′FL in 200 μL of PBS (n=5) or 200 μL of PBS (n=5) daily for 5 days. On day six, mice were sacrificed and lymphocytes from mesenteric lymph nodes were removed and isolated using standard methods. Mesenteric lymph node lymphocytes (MLNLs) were stained with fluorochrome labeled monoclonal antibodies specific for CD4 and CD25 surface markers. Cells were then fixed with a paraformaldehyde solution to maintain surface marker staining integrity. Stained MLNLs were permeabilized with a saponin-based solution to allow for intracellular uptake of monoclonal antibodies and then stained with a fluorochrome labeled monoclonal antibody specific for the transcription factor FoxP3. All cell preparation methods used were based on recommendations of the monoclonal antibody manufacturer. MLNL suspensions were analyzed by flow cytometery. FoxP3^+, CD4^+, and CD25^+ cells are classified T regulatory cells.

[3] = system: gastrointestinal epithelial cells; conditions: Kuntz et al (2008); cited from earlier work

Compound: 2′-fucosyllactose [2′FL]
- unstimulated peripheral blood mononuclear cell proliferation [1]: decreased unstimulated peripheral blood mononuclear cell proliferation
- percentage of T-regulatory cells in mesenteric lymph nodes [2]: generation of T regulatory cells

Compound: 3-fucosyllactose [3′FL]
- unstimulated peripheral blood mononuclear cell proliferation [1]: decreased unstimulated peripheral blood mononuclear cell proliferation

Compound: CC(=O)N[C@H]1[C@H](O[C@H]2[C@@H](O)[C@@H](CO)O[C@@H](O[C@H]3[C@H](O)[C@@H](O)C(O)O[C@@H]3CO)[C@@H]2O)O[C@H](CO)[C@@H](O[C@@H]2O[C@H](CO)[C@H](O)[C@H](O)[C@H]2O)[C@@H]1O (mixture of isomers) [LNnT, Lacto-N-neotetraose]
- unstimulated peripheral blood mononuclear cell proliferation [1]: this was not seen
- PHA-stimulated peripheral blood mononuclear cell proliferation [1]: did not significantly enhance proliferation

Compound: Fucosyllactose [FL]
- PHA-stimulated peripheral blood mononuclear cell proliferation [1]: did not significantly enhance proliferation

Compound: sialyllactose [SL]
- differentiation of gastrointestinal epithelial cells [3]: increases differentiation
- proliferation of gastrointestinal epithelial cells [3]: decreases proliferation
